Patent US10349656B2, “Difluoromethyl-nicotinic-indanyl carboxamides” (BAYER CROPSCIENCE AKTIENGESELLSCHAFT, priority 2014, dated 2019)
Values belong to the molecule of their own block, whether it stands above or below them.

Assays:
[1] = Log P by HPLC on reversed phase columns (EEC directive 79/831 Annex V.A8), acidic range; assay type: physicochemical; details: for chromatographic logP: LC-UV, acidic range, 0.1% formic acid in water and acetonitrile (gradient 10% to 95% acetonitrile)
Description: Measurement of Log P values was performed according to EEC directive 79/831 Annex V.A8 by HPLC (High Performance Liquid Chromatography) on reversed phase columns with the following method: ^[a] Log P value is determined by measurement of LC-UV, in an acidic range, with 0.1% formic acid in water and acetonitrile as eluent (linear gradient from 10% acetonitrile to 95% acetonitrile).
(§1) Calibration was done with straight-chain alkan2-ones (with 3 to 16 carbon atoms) with known Log P values (measurement of Log P values using retention times with linear interpolation between successive alka-nones). Lambda-max-values were determined using UV-spectra from 200 nm to 400 nm and the peak values of the chromatographic signals.
as §1, with “alkanones).” for “alka-nones).”

[2] = tested on: Pyrenophora teres; test: In vivo preventive test on Pyrenophora teres (net blotch on barley); details: barley plants; for Efficacy: comparison table
Description: (§2) The active ingredients are made soluble and homogenized in a mixture of Dimethyl sulfoxide/Acetone//Tween® 80 and then diluted in water to the desired concentration.
The young plants of barley are treated by spraying the active ingredient prepared as described above. Control plants are treated only with an aqueous solution of Acetone/Dimethyl sulfoxide/Tween® 80.
After 24 hours, the plants are contaminated by spraying the leaves with an aqueous suspension of Pyreoophora teres spores. The contaminated barley plants are incubated for 48 hours at 20° C. and at 100% relative humidity and then for 12 days at 20° C. and at 70-80% relative humidity.
The test is evaluated 14 days after the inoculation. 0% means an efficacy which corresponds to that of the control plants while an efficacy of 100% means that no disease is observed.

[3] = tested on: Septoria tritici; test: In vivo preventive test on Septoria tritici (leaf spot on wheat), DMSO/acetone/Tween 80; details: wheat plants; for Efficacy: dose 10 ppm, comparison table; for protection (in words): dose of 10 ppm of active ingredient
Description: as §2
The young plants of wheat are treated by spraying the active ingredient prepared as described above. Control plants are treated only with an aqueous solution of Acetone/Dimethyl sulfoxide/Tween® 80.
After 24 hours, the plants are contaminated by spraying the leaves with an aqueous suspension of Septoria tritici spores. The contaminated wheat plants are incubated for 72 hours at 18° C. and at 100% relative humidity and then for 21 days at 20° C. and at 90% relative humidity.
The test is evaluated 24 days after the inoculation. 0% means an efficacy which corresponds to that of the control plants while an efficacy of 100% means that no disease is observed.

[4] = tested on: Sphaerotheca fuliginea; test: In vivo preventive test on Sphaerotheca fuliginea (powdery mildew on cucurbits); details: gherkin plants; for Efficacy: dose 10 ppm, comparison table; for protection (in words): dose of 10 ppm of active ingredient
Description: as §2
(§3) The young plants of gherkin are treated by spraying the active ingredient prepared as described above. Control plants are treated only with an aqueous solution of Acetone/Dimethyl sulfoxide/Tween® 80.
After 24 hours, the plants are contaminated by spraying the leaves with an aqueous suspension of Sphaerotheca fuliginea spores. The contaminated gherkin plants are incubated for 72 hours at 18° C. and at 100% relative humidity and then for 12 days at 20° C. and at 70-80% relative humidity.
The test is evaluated 15 days after the inoculation. 0% means an efficacy which corresponds to that of the control plants while an efficacy of 100% means that no disease is observed.

[5] = tested on: Botrytis cinerea; test: In vivo preventive test on Botrytis cinerea (grey mould); details: gherkin plants
Description: as §2, §3
After 24 hours, the plants are contaminated by spraying the leaves with an aqueous suspension of Botrytis cinerea spores. The contaminated gherkin plants are incubated for 4 to 5 days at 17° C. and at 90% relative humidity.
The test is evaluated 4 to 5 days after the inoculation. 0% means an efficacy which corresponds to that of the control plants while an efficacy of 100% means that no disease is observed.

[6] = dose of 10 ppm of active ingredient
[7] = dose of 100 ppm of active ingredient

Log P[a] [1]: 3.87^[a]
SMILES: CC(C)C1CC(C)(C)c2cccc(NC(=O)c3cccnc3C(F)F)c21 (racemic) [Example 1]

Log P[a] [1]: 3.96^[a]
SMILES: CCCC1CC(C)(C)c2cccc(NC(=O)c3cccnc3C(F)F)c21 (racemic) [Example 5]

Log P[a] [1]: 4.65^[a]
SMILES: CCCC1CC(C)(C)c2cccc(NC(=O)c3ccc(Cl)nc3C(F)F)c21 (racemic) [Example 8]

Log P[a] [1]: 4.27^[a]
SMILES: CC(C)CC1CC(C)(C)c2cccc(NC(=O)c3cccnc3C(F)F)c21 (racemic) [Example 10]

Log P[a] [1]: 4.54^[a]
SMILES: CC(C)CC1CC(C)(C)c2cccc(NC(=O)c3c(F)ccnc3C(F)F)c21 (racemic) [Example 13]

Log P[a] [1]: 3.87^[a]
SMILES: CCC1CC(C)(C)c2cccc(NC(=O)c3c(F)ccnc3C(F)F)c21 (racemic) [Example 14]

Log P[a] [1]: 4.21^[a]
SMILES: CCCC1CC(C)(C)c2cccc(NC(=O)c3c(F)ccnc3C(F)F)c21 (racemic) [Example 15]

Log P[a] [1]: 3.37^[a]
SMILES: CC(C)C1CC(C)(C)c2cccc(N)c21 (racemic) [Example III-01]

Log P[a] [1]: 3.60^[a]
SMILES: CCCC1CC(C)(C)c2cccc(N)c21 (racemic) [Example III-03]

Log P[a] [1]: 4.18^[a]
SMILES: CC(C)CC1CC(C)(C)c2cccc(N)c21 (racemic) [Example III-04]

SMILES: CCC1CC(C)(C)c2cccc(NC(=O)c3cccnc3C(F)F)c21 (single isomer, unassigned) [Example 3]
Log P[a] [1]: 3.62^[a]

SMILES: CCC1CC(C)(C)c2cccc(NC(=O)c3cccnc3C(F)F)c21 (single isomer, unassigned) [Example 4]
Log P[a] [1]: 3.62^[a]

Log P[a] [1]: 3.96^[a]
SMILES: CCCC1CC(C)(C)c2cccc(NC(=O)c3cccnc3C(F)F)c21 (single isomer, unassigned) [Example 6]

Log P[a] [1]: 3.96^[a]
SMILES: CCCC1CC(C)(C)c2cccc(NC(=O)c3cccnc3C(F)F)c21 (single isomer, unassigned) [Example 7]

Log P[a] [1]: 4.27^[a]
SMILES: CC(C)CC1CC(C)(C)c2cccc(NC(=O)c3cccnc3C(F)F)c21 (single isomer, unassigned) [Example 11]

Log P[a] [1]: 4.27^[a]
SMILES: CC(C)CC1CC(C)(C)c2cccc(NC(=O)c3cccnc3C(F)F)c21 (single isomer, unassigned) [Example 12]

SMILES: CCC1CC(C)(C)c2cccc(NC(=O)c3cccnc3Cl)c21 (stereo not drawn) [2-chloro-N-(3-ethyl-1,1-dimethyl-2,3-dihydro-1H-inden-4-yl)nicotinamide, reference compound]
Efficacy ([2]; dose 10 ppm): 0% | Efficacy ([2]; dose 100 ppm): 71% | protection (in words) [2, 6]: no protection at all | protection (in words) [2, 7]: moderate protection | Efficacy [3]: 50% | protection (in words) [3]: moderate protection | Efficacy [4]: 44% | protection (in words) [4]: weak protection

SMILES: CCC1CC(C)(C)c2cccc(NC(=O)c3cccnc3C(F)F)c21 (stereo not drawn) [Example 2, 2-(difluoromethyl)-N-(3-ethyl-1,1-dimethyl-2,3-dihydro-1H-inden-4-yl)nicotinamide]
Efficacy ([2]; dose 10 ppm): 64% | Efficacy ([2]; dose 100 ppm): 93% | protection (in words) [2, 6]: moderate protection | protection (in words) [2, 7]: very good protection | Efficacy ([5]; dose 100 ppm, comparison table): 93% | protection (in words) [5, 7]: very good protection | Efficacy [3]: 97% | protection (in words) [3]: very good protection | Efficacy [4]: 100% | protection (in words) [4]: total protection | chromatographic logP [1]: 3.62

SMILES: CCC1CC(C)(C)c2cccc(N)c21 (stereo not drawn) [Example III-02, 3-ethyl-1,1-dimethylindan-4-amine]
chromatographic logP [1]: 2.86
